“And” between values parts separate entries of the source, which are not always exact repeats. Equal values may be shown once.
Legend:
[1] = Double-blind randomised clinical study: sitting blood pressure and heart rate; type: in vivo, patients; settings: for patients who attained a blood pressure <140/<90 mm Hg: after one year; for SBP, mean change / DBP, mean change / Heart rate, mean change: sitting, mean (SD)
Experimental: (§1) A clinical study was performed. It was a study with a double-blind, randomised, controlled, parallel group design.
For inclusion, sitting blood pressure should be in the range of 140-179 and/or 90-104 mm Hg (mean of two measurements according to standardised procedures [1999 World Health Organization (WHO)—International Society of Hypertension Guidelines for the Management of Hypertension. Journal of Hypertension 1999; 17; 151-83] and at two visits) on placebo treatment and after the patients had been subjected to non-pharmacological treatment, as recommended [The Swedish Council on Technology Assessment in Health Care (SBU). Moderately elevated blood pressure. J Intern Med 1995; 238(Suppl 737): S1-S128; 1999 World Health Organization (WHO)—International Society of Hypertension Guidelines for the Management of Hypertension. Journal of Hypertension 1999; 17; 151-83] for one month or longer. Since the non-pharmacological intervention had been introduced before the start of the study and then maintained, its effect on metabolic variables during the study was minimal.
(§2) After four weeks of single-blind treatment with placebo, the patients were randomised to double-blind treatment with either candesartan cilexetil 16 mg or hydrochlorothiazide 25 mg and followed for one year. If sitting systolic or diastolic blood pressure was above target pressure (<130/<85 mmHg, for patients below 65 years, or <140/<90 mmHg, if 65 years or older) [1999 World Health Organization (WHO)—International Society of Hypertension Guidelines for the Management of Hypertension. Journal of Hypertension 1999; 17; 151-83] at any visit during the treatment period, double-blind treatment with felodipine extended-release 2.5-5.0 mg was added to the candesartan group and atenolol 50-100 mg was added to the hydrochlorothiazide group. No further antihypertensive treatment was allowed. Two patients were withdrawn from the study, both in the candesartan cilexetil group, since their blood pressure exceeded the pre-specified safety level (≧180 and/or ≧105 mm Hg, mean of two recordings at different visits).
(§3) Efficacy variables were analysed using analysis of covariance (ANCOVA) with treatment and health centre as factors and baseline value as covariate. Difference in treatment effect was estimated with 95% confidence interval. To test difference between treatments in change of biochemistry variables the Wilcoxon Rank Sum test was used. […] In this approach all randomised patients who had completed the study and had taken at least one dose of study drug were included.

[2] = Clinical study: fasting serum insulin and plasma glucose; type: in vivo, patients; settings: for P-glucose, At 12 months / S-insulin, At 12 months / S-insulin/P-glucose, At 12 months: at 12 months of treatment; for P-glucose, At 12 months / S-insulin, At 12 months / P-glucose, Baseline / S-insulin, Baseline: fasting; for P-glucose, At 12 months / S-insulin, At 12 months / S-insulin/P-glucose, At 12 months / P-glucose, Baseline / S-insulin, Baseline / S-insulin/P-glucose, Baseline / P-glucose, Mean change at 12 months / S-insulin, Mean change at 12 months / S-insulin/P-glucose, Mean change at 12 months: mean (SD); for P-glucose, Baseline / S-insulin, Baseline / S-insulin/P-glucose, Baseline: baseline (before randomised treatment); for P-glucose, Mean change at 12 months / S-insulin, Mean change at 12 months / S-insulin/P-glucose, Mean change at 12 months: change from baseline to 12 months; for Fasting levels of both serum insulin and plasma glucose during treatment: result in words, 12 months treatment
Experimental: The fasting plasma glucose level is defined as the concentration of glucose in the plasma of a subject after an overnight's fast. Patients were instructed not to eat breakfast on the morning of the follow-up visits.
as §1, §2
Analyses of plasma glucose were carried out at the Department of Clinical Chemistry, Umeå University Hospital. Plasma glucose was routinely analysed by Vitros 950 glucose oxidase method (Ortho Clinical Diagnostics).
as §3

[3] = Clinical study: metabolic syndrome diagnosed according to WHO criteria; type: in vivo, patients; settings: n = 196 per group
Experimental: as §1, §2
The metabolic syndrome was diagnosed according to the following criteria [World Health Organization (WHO). Department of Noncommunicable Disease Surveillance. Geneva: WHO 1999 pp 1-59]: • 1. Fasting plasma glucose above 6.1 mmol/L • 2. Blood pressure above 140/90 mm Hg • 3. One or more of the following: • a. plasma triglycerides above 1.7 mmol/L and/or HDL below 0.9 mmol/L (men), below 1.0 mmol/L (women) • b. Body mass index above 30 kg/m^2 Statistical Analyses

[4] = Clinical study: plasma triglycerides; type: in vivo; settings: individual patients of the candesartan cilexetil group with metabolic syndrome at baseline but not after 12 months
Experimental: as §1
After four weeks of single-blind treatment with placebo, the patients were randomised to double-blind treatment with either candesartan cilexetil 16 mg or hydrochlorothiazide 25 mg and followed for one year. If sitting systolic or diastolic blood pressure was above target pressure (<130/<85 mmHg, for patients below 65 years, or <140/<90 mmHg, if 65 years or older) [1999 World Health Organization (WHO)—International Society of Hypertension Guidelines for the Management of Hypertension. […]
Total plasma cholesterol, LDL-cholesterol, HDL-cholesterol and triglycerides were determined in all patients at randomisation (n=392), and in most patients after six months (n=354), and after 12 months (n=352). Total plasma cholesterol and triglycerides concentrations were determined enzymatically. HDL-cholesterol was measured after the precipitation of apolipoprotein B-containing lipoproteins in whole plasma by heparin-manganese chloride [Lipid Research Clinics Program: Manual of Laboratory Operations, Bethesda, Md.: National Institutes of Health, Vol 1. […] Their LDL cholesterol levels were not calculated.

[5] = at 6 months, hypertensive patients, candesartan cilexetil 16 mg (+ felodipine if needed) or HCTZ 25 mg (+ atenolol if needed)

Row | SMILES | patients who attained a blood pressure <140/<90 mm Hg [1] [%] | SBP, mean change [1, 5] | DBP, mean change ([1]; at 6 months, same regimens) | Heart rate, mean change ([1]; at 6 months, same regimens) | DBP, mean change ([1]; at 12 months, same regimens) | Heart rate, mean change ([1]; at 12 months, same regimens) | SBP, mean change ([1]; at 12 months, same regimens) | P-glucose, At 12 months [2] | S-insulin, At 12 months [2] | S-insulin/P-glucose, At 12 months [2] | P-glucose, Baseline [2] | S-insulin, Baseline [2] | S-insulin/P-glucose, Baseline [2] | P-glucose, Mean change at 12 months [2] | S-insulin, Mean change at 12 months [2] | S-insulin/P-glucose, Mean change at 12 months [2] | Fasting levels of both serum insulin and plasma glucose during treatment [2] | patients suffering from the metabolic syndrome as defined by WHO ([3]; at base-line) [patients] | also measured
1 | NS(=O)(=O)c1cc2c(cc1Cl)NCNS2(=O)=O [HCTZ, hydrochlorothiazide] | 62 | −23.9 (13.0) mm Hg | −13.9 (7.1) mm Hg | −6.8 (10.1) bpm | −12.9 (7.7) mm Hg | −7.3 (9.4) bpm | −22.8 (14.9) mm Hg | 5.42 (0.89) mmol/L | 11.00 (6.88) mlU/L | 2.03 (1.23) | 5.29 (0.98) mmol/L | 9.65 (6.09) mlU/L | 1.83 (1.10) | 0.13 (0.69) mmol/L | 1.35 (6.09) mlU/L | 0.20 (1.13) | increased | 12 | patients suffering from the metabolic syndrome as defined by WHO ([3]; at 12 months, p=0.007 between groups): 18 patients
2 | CCOc1nc2cccc(C(=O)OC(C)OC(=O)OC3CCCCC3)c2n1Cc1ccc(-c2ccccc2-c2nn[nH]n2)cc1 (centres unmarked) [Candesartan cilexetil, candesartan cilexetil] | 65 | −20.9 (13.1) mm Hg | −12.8 (6.9) mm Hg | −2.1 (8.4) bpm | −13.0 (7.4) mm Hg | −2.2 (8.4) bpm | −21.0 (15.2) mm Hg | 5.10 (0.57) mmol/L | 8.96 (5.42) mlU/L | 1.76 (1.06) | 5.17 (0.58) mmol/L | 9.25 (7.90) mlU/L | 1.77 (1.38) | −0.06 (0.46) mmol/L | −0.30 (6.50) mlU/L | −0.00 (1.23) | unaffected | 13 | Triglycerides, 12 months ([4]; after 12 months): 1.59 mmol/L and 1.44 mmol/L and 1.28 mmol/L; Triglycerides, Baseline ([4]; baseline): 2.15 mmol/L and 2.34 mmol/L and 2.65 mmol/L; Fasting glucose, 12 months ([2]; individual patients 1-8 of the candesartan cilexetil group with metabolic syndrome at baseline but not after 12 months, after 12 months): 5.5 mmol/L and 5.7 mmol/L (2×) and 5.6 mmol/L and 5.2 mmol/L and 6.0 mmol/L and 5.9 mmol/L; Fasting glucose, Baseline ([2]; individual patients 1-8 of the candesartan cilexetil group with metabolic syndrome at baseline but not after 12 months, baseline): 6.1 mmol/L and 6.5 mmol/L and 6.2 mmol/L (4×) and 6.4 mmol/L
